Laboratory results taken from patent publication US20120034613A1, “Apparatus and Method for Testing Relationships Between Gene Expression and Physical Appearance of Skin” (NSE Products, Inc., priority 2010, published 2012).

Test system: EpidermFT™ Skin Model (EFT-400) full thickness skin cultures
Experiment: Affymetrix GeneChip HG U133 Plus 2.0 microarray global gene expression, agent-exposed vs untreated skin cultures
Type: cell-based, human
[1] = Salicin 0.5% vs Untreated Control, 24 hr, direction down
[2] = probe 201286_at, Table 3 skin structure
[3] = probe 203535_at, Table 3 skin structure
[4] = probe 204422_s_at, Table 3 skin structure

## OCc1ccccc1O[C@@H]1O[C@H](CO)[C@@H](O)[C@H](O)[C@H]1O [Salicin, 2-(Hydroxymethyl)phenyl β-D-glucospyranoside]
[1]
  Fold change WNK1 (211993_at): 2.037
  Fold change ZBTB1 (1557036_at): 2.05
  Fold change ZDHHC21 (241946_at): 2.09
  Fold change ZFYVE21 (219929_s_at): 2.001
  Fold change ZHX1 (223213_s_at): 2.071
  Fold change ZHX1 (223214_s_at): 2.15
  Fold change ZNF85 (1554445_at): 2.143
  Fold change ZNF561 (235200_at): 2.135
  Fold change ZNF589 (219968_at): 2.059
  Fold change ZNF823 (229732_at): 2.045
Probe 200606_at, 0.5%, 24 hr
  Direction DSP: down
  Fold change DSP: 2.848
Probe 200800_s_at, 0.5%, 24 hr
  Direction HSPA1A /// HSPA1B: up
  Fold change HSPA1A /// HSPA1B: 3.112
Probe 200832_s_at, 0.5%, 24 hr
  Direction SCD: down
  Fold change SCD: 3.77
Probe 200965_s_at, 0.5%, 24 hr
  Direction ABLIM1: down
  Fold change ABLIM1: 11.88
Probe 201042_at, 0.5%, 24 hr
  Direction TGM2: up
  Fold change TGM2: 2.351
Probe 201044_x_at, 0.5%, 24 hr
  Direction DUSP1: up
  Fold change DUSP1: 3.726
Probe 201150_s_at, 0.5%, 24 hr
  Direction TIMP3: up
  Fold change TIMP3: 2.058
[2]
  Direction SDC1: down
  Fold change SDC1: 4.63
Probe 201287_s_at, 0.5%, 24 hr
  Direction SDC1: down
  Fold change SDC1: 3.32
Probe 201428_at, 0.5%, 24 hr
  Direction CLDN4: down
  Fold change CLDN4: 3.454
Probe 201474_s_at, 0.5%, 24 hr
  Direction ITGA3: down
  Fold change ITGA3: 2.052
Probe 201502_s_at, 0.5%, 24 hr
  Direction NFKBIA: up
  Fold change NFKBIA: 3.064
Probe 201656_at, 0.5%, 24 hr
  Direction ITGA6: down
  Fold change ITGA6: 4.442
Probe 201820_at, 0.5%, 24 hr
  Direction KRT5: down
  Fold change KRT5: 2.154
Probe 201839_s_at, 0.5%, 24 hr
  Direction EPCAM: down
  Fold change EPCAM: 2.093
Probe 201860_s_at, 0.5%, 24 hr
  Direction PLAT: up
  Fold change PLAT: 4.229
Probe 202053_s_at, 0.5%, 24 hr
  Direction ALDH3A2: down
  Fold change ALDH3A2: 4.399
Probe 202154_x_at, 0.5%, 24 hr
  Direction TUBB3: down
  Fold change TUBB3: 2.967
Probe 202340_x_at, 0.5%, 24 hr
  Direction NR4A1: up
  Fold change NR4A1: 2.338
Probe 202411_at, 0.5%, 24 hr
  Direction IFI27: down
  Fold change IFI27: 4.671
Probe 202422_s_at, 0.5%, 24 hr
  Direction ACSL4: up
  Fold change ACSL4: 3.786
Probe 202558_s_at, 0.5%, 24 hr
  Direction HSPA13: up
  Fold change HSPA13: 3.13
Probe 202609_at, 0.5%, 24 hr
  Direction EPS8: up
  Fold change EPS8: 2.334
Probe 202643_s_at, 0.5%, 24 hr
  Direction TNFAIP3: up
  Fold change TNFAIP3: 6.915
Probe 202687_s_at, 0.5%, 24 hr
  Direction TNFSF10: down
  Fold change TNFSF10: 20.31
Probe 202724_s_at, 0.5%, 24 hr
  Direction FOXO1: up
  Fold change FOXO1: 2.098
Probe 202826_at, 0.5%, 24 hr
  Direction SPINT1: down
  Fold change SPINT1: 4.585
Probe 202843_at, 0.5%, 24 hr
  Direction DNAJB9: up
  Fold change DNAJB9: 3.56
Probe 203184_at, 0.5%, 24 hr
  Direction FBN2: up
  Fold change FBN2: 2.028
[3]
  Direction S100A9: down
  Fold change S100A9: 2.59
Probe 203549_s_at, 0.5%, 24 hr
  Direction LPL: up
  Fold change LPL: 4.075
Probe 203708_at, 0.5%, 24 hr
  Direction PDE4B: up
  Fold change PDE4B: 5.314
Probe 203747_at, 0.5%, 24 hr
  Direction AQP3: down
  Fold change AQP3: 2.032
Probe 203810_at, 0.5%, 24 hr
  Direction DNAJB4: up
  Fold change DNAJB4: 2.053
Probe 203836_s_at, 0.5%, 24 hr
  Direction MAP3K5: up
  Fold change MAP3K5: 2.356
Probe 203887_s_at, 0.5%, 24 hr
  Direction THBD: down
  Fold change THBD: 3.137
Probe 203896_s_at, 0.5%, 24 hr
  Direction PLCB4: up
  Fold change PLCB4: 4.016
Probe 203980_at, 0.5%, 24 hr
  Direction FABP4: up
  Fold change FABP4: 2.251
Probe 204038_s_at, 0.5%, 24 hr
  Direction LPAR1: up
  Fold change LPAR1: 2.732
Probe 204135_at, 0.5%, 24 hr
  Direction FILIP1L: down
  Fold change FILIP1L: 2.996
Probe 204141_at, 0.5%, 24 hr
  Direction TUBB2A: down
  Fold change TUBB2A: 2.739
Probe 204256_at, 0.5%, 24 hr
  Direction ELOVL6: down
  Fold change ELOVL6: 3.121
Probe 204273_at, 0.5%, 24 hr
  Direction EDNRB: up
  Fold change EDNRB: 3.916
Probe 204379_s_at, 0.5%, 24 hr
  Direction FGFR3: down
  Fold change FGFR3: 5.288
Probe 204421_s_at, 0.5%, 24 hr
  Direction FGF2: up
  Fold change FGF2: 3.845
[4]
  Direction FGF2: up
  Fold change FGF2: 3.455
Probe 204636_at, 0.5%, 24 hr
  Direction COL17A1: down
  Fold change COL17A1: 3.576
Probe 204733_at, 0.5%, 24 hr
  Direction KLK6: down
  Fold change KLK6: 16.28
Probe 204734_at, 0.5%, 24 hr
  Direction KRT15: down
  Fold change KRT15: 3.6
Probe 204790_at, 0.5%, 24 hr
  Direction SMAD7: up
  Fold change SMAD7: 2.151
Probe 204897_at, 0.5%, 24 hr
  Direction PTGER4: up
  Fold change PTGER4: 2.525
Probe 204932_at, 0.5%, 24 hr
  Direction INFRSF11B: up
  Fold change INFRSF11B: 6.287
